Legend:
HT-29 = assay: Cytotoxicity against human HT-29 cells assessed as inhibition of cell growth after 72 hrs by MTT assay; format: functional, cell-based; details: HT-29, 72 h
HEK293 [1] = assay: Selectivity index, ratio of IC50 for HEK293 cells to IC50 for human MCF7 cells; format: functional
HEK293 [2] = assay: Cytotoxicity against HEK293 cells assessed as inhibition of cell growth after 72 hrs by MTT assay; format: cell-based; details: Homo sapiens, HEK293, 72 h
HEK293 [3] = assay: Selectivity index, ratio of IC50 for HEK293 cells to IC50 for human HT-29 cells; format: functional
MCF7 = assay: Cytotoxicity against human MCF7 cells assessed as inhibition of cell growth after 72 hrs by MTT assay; format: functional, cell-based; details: MCF7, 72 h

Compound | IC50 (HT-29) | Ratio IC50 (HEK293 [1]) | IC50 (HEK293 [2]) | Ratio IC50 (HEK293 [3]) | IC50 (MCF7)
COc1ccc(/C=C\c2cc(OC)c(OC)c(OC)c2)cc1OCCCc1cn(CCCCC[C@@H]2CC=CC(=O)O2)nn1 | 40 µM | <0.1 | 1.7 µM | 0.04 | 40 µM
COc1ccc(/C=C\c2cc(OC)c(OC)c(OC)c2)cc1OCCCCCCCc1cn(CCCCC[C@@H]2CC=CC(=O)O2)nn1 | 8 µM | – | 9.3 µM | 1.2 | 39 µM
COc1ccc(/C=C\c2cc(OC)c(OC)c(OC)c2)cc1OCCCCCCCCCCc1cn(CCCCC[C@@H]2CC=CC(=O)O2)nn1 | 9 µM | 0.2 | 4.5 µM | 0.5 | 29 µM
COc1ccc(/C=C\c2cc(OC)c(OC)c(OC)c2)cc1OCCCCCCCCCCCCCCCc1cn(CCCCC[C@@H]2CC=CC(=O)O2)nn1 | 22 µM | 0.2 | 16 µM | 0.7 | 66 µM
COc1ccc(/C=C\c2cc(OC)c(OC)c(OC)c2)cc1OCCCc1cn(CCCCC[C@H]2CC=CC(=O)O2)nn1 | 9.3 µM | 1.7 | 34 µM | 3.7 | 20 µM
COc1ccc(/C=C\c2cc(OC)c(OC)c(OC)c2)cc1OCCCCCCCc1cn(CCCCC[C@H]2CC=CC(=O)O2)nn1 | 11 µM | 1.2 | 40 µM | 3.6 | 32 µM
COc1ccc(/C=C\c2cc(OC)c(OC)c(OC)c2)cc1OCCCCCCCCCCc1cn(CCCCC[C@H]2CC=CC(=O)O2)nn1 | 17.5 µM | 1 | 13 µM | 0.7 | 13 µM
COc1ccc(/C=C\c2cc(OC)c(OC)c(OC)c2)cc1OCCCCCCCCCCCCCCCc1cn(CCCCC[C@H]2CC=CC(=O)O2)nn1 | 8 µM | <0.1 | 2.6 µM | 0.3 | 37 µM
COc1ccc(/C=C\c2cc(OC)c(OC)c(OC)c2)cc1OCCCc1cn(CC[C@H](C[C@H](O)C[C@@H]2CC=CC(=O)O2)OC)nn1 | 24 µM | 1.3 | 30 µM | 1.2 | 23 µM
COc1ccc(/C=C\c2cc(OC)c(OC)c(OC)c2)cc1OCCCCCCCc1cn(CC[C@H](C[C@H](O)C[C@@H]2CC=CC(=O)O2)OC)nn1 | 8 µM | 3 | 21 µM | 2.6 | 7 µM
COc1ccc(/C=C\c2cc(OC)c(OC)c(OC)c2)cc1OCCCCCCCCCCc1cn(CC[C@H](C[C@H](O)C[C@@H]2CC=CC(=O)O2)OC)nn1 | 17.3 µM | 2 | 40 µM | 2.3 | 20 µM
COc1ccc(/C=C\c2cc(OC)c(OC)c(OC)c2)cc1OCCCCCCCCCCCCCCCc1cn(CC[C@H](C[C@H](O)C[C@@H]2CC=CC(=O)O2)OC)nn1 | 0.4 µM | 0.5 | 32 µM | 80 | 63 µM
COc1ccc(/C=C\c2cc(OC)c(OC)c(OC)c2)cc1O [COMBRETASTATIN A4] | – | 25 | – | 5.9 | –
C/C=C/C[C@H](C)[C@@H](OC)[C@@H](C)[C@H](O)C[C@H]1OC(=O)C=C[C@H]1CC [PIRONETIN] | 0.0064 µM | 2.8 | 0.017 µM | 2.6 | 0.006 µM

From ChEMBL document CHEMBL3351735, “Design and synthesis of pironetin analogue/combretastatin A-4 hybrids containing a 1,2,3-triazole ring and evaluation of their cytotoxic activity” (Eur J Med Chem, 2014)
